From the supplement of paper PMC10307832

Key:
Assay in all cases: relative viability (nuclei count vs DMSO), 5 days (fraction); higher = more cells survive
[1] = compound: O[C@H]1CC[C@H](Nc2ncc3nc(Nc4c(F)cc(F)cc4F)n([C@H]4CCOC4)c3n2)CC1 [Tanzisertib] + Nc1ncn([C@H]2C[C@H](O)[C@@H](CO)O2)c(=O)n1 [Decitabine] (partner 2 µM)
Summary of the method: (§1)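 Lung cancer cell lines in 1536-well plates were dosed by pin tool the day after seeding, either with one drug alone or with a fixed anchor-drug dose plus five library-drug doses (not always all listed) in √10 steps. After 5 days, cells were fixed and their nuclei stained in one step (final 0.05% Triton X-100, 1% formaldehyde, 1 ug/ml Hoechst), then counted on 4× images. Relative viability is the nuclei count in treated wells divided by that in vehicle wells. Values are medians of duplicate plates.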

[2] = compound: O[C@H]1CC[C@H](Nc2ncc3nc(Nc4c(F)cc(F)cc4F)n([C@H]4CCOC4)c3n2)CC1 [Tanzisertib] + Cc1cc(Nc2cc(N3CCN(C)CC3)nc(Sc3ccc(NC(=O)C4CC4)cc3)n2)n[nH]1 [Tozasertib] (partner 0.1 µM)
Summary of the method: as §1

[3] = compound: C1CNCCC1C2=CC(=NN2)C3=CC=NC=C3 + COc1cc2c(Oc3ccc(NC(=O)C4(C(=O)Nc5ccc(F)cc5)CC4)cc3F)ccnc2cc1OCCCN1CCOCC1 [Foretinib] (partner 0.25 µM)
Summary of the method: as §1

[4] = compound: C[C@@H](N)c1ccc(C(=O)Nc2ccnc3[nH]ccc23)cc1 + Nc1nc2[nH]cc(CCc3ccc(C(=O)N[C@@H](CCC(=O)O)C(=O)O)cc3)c2c(=O)[nH]1 [Pemetrexed] (partner 0.2 µM)
Summary of the method: as §1

Cell Line	relative viability ([1]; first compound 0.08 µM)	relative viability ([1]; first compound 0.253 µM)	relative viability ([1]; first compound 0.8 µM)	relative viability ([1]; first compound 2.53 µM)	relative viability ([1]; first compound 8 µM)	relative viability ([2]; first compound 0.08 µM)	relative viability ([2]; first compound 0.253 µM)	relative viability ([2]; first compound 0.8 µM)	relative viability ([2]; first compound 2.53 µM)	relative viability ([2]; first compound 8 µM)	relative viability ([3]; first compound 0.08 µM)	relative viability ([3]; first compound 0.8 µM)	relative viability ([3]; first compound 2.53 µM)	relative viability ([3]; first compound 8 µM)	relative viability ([4]; first compound 0.04 µM)	relative viability ([4]; first compound 0.1265 µM)	relative viability ([4]; first compound 0.4 µM)	relative viability ([4]; first compound 1.265 µM)	relative viability ([4]; first compound 4 µM)
NCI-H2087	0.35	0.268	0.276	0.244	0.33	0.238	0.287	0.277	0.209	0.202	0.982	1.19	1.05	1.1	0.654	0.651	0.65	0.571	0.577
NCI-H460	0.54	0.465	0.479	0.467	0.497	0.548	0.376	0.457	0.382	0.099	0.978	1.1	1.02	1.07	0.0682	0.063	0.0594	0.0603	0.0691
LOU-NH91	0.869	0.82	0.837	0.805	0.635	0.778	0.683	0.681	0.652	0.596	0.944	0.911	1	0.936	0.378	0.378	0.393	0.44	0.368
NCI-H1651	0.615	0.66	0.474	0.591	0.537	0.711	0.707	0.637	0.689	0.557	0.763	0.839	0.7	0.851	0.628	0.584	0.663	0.611	0.706
NCI-H441	0.237	0.239	0.261	0.238	0.257	0.568	0.71	0.512	0.422	0.698	0.945	1.18	1.12	0.834	0.245	0.302	0.257	0.231	0.223
